Test: Viscosity of hydroxamic acids
Assay type: physicochemical
Settings: neat, without a solvent
Text: When a liquid hydroxamic acid compound is used, it can be used neat as the organic phase in the oxidation-dissolution reaction and the subsequent extraction-separation. However it will often be preferable to use an organic solvent as an extender, or to lower viscosity or lessen absorption or resulting losses of the hydroxamic acid, or to promote phase separation, and the organic phase often includes a liquid hydrocarbon solvent. Such solvent must be substantially water immiscible so as to be separable from the aqueous solutions containing the arsenic values. Suitable solvents include aliphatic and aromatic hydrocarbons such as kerosene, hexane, toluene, methylene chloride, chloroform, carbon tetrachloride, xylene, naphtha, cyclohexane, Chevron Ion Exchange solvent, Kermac 470-B. Solvesso 100 and the like. Kerosene and other low viscosity, high flash point petrolleum distillates are preferred. Generally, the hydroxamic compounds will be present in the organic phase in an amount of at least about 2% by weight. Preferably, the N-alkyl alkanohydroxamic compound will be present in the amount of 2 to 40%, more preferably about 10 to 35%, by weight based on the total organic phase. Viscosity and/or solubility serves to fix the upper limit of the content of said hydroxamic compound which will depend upon the structure of the compound employed. […]

Substance: N-methyl isostearohydroxamic acid
- viscosity: sufficiently low viscosity that they can be used neat
